Measured values: patent US9986723B2, “Screen and use of therapeutics for pancreatic ductal adenocarcinoma” (The Board of Regents of the University of Texas System, priority 2014, dated 2018)

Assays:
[1] = test system: AsPC1 tumors; assay: Low dose warfarin in drinking water, orthotopic human tumor xenograft; assay type: in vivo, mouse; conditions: warfarin 1 mg/L drinking water
Protocol: (§1) (FIG. 23A) Primary tumor burden after therapy with warfarin. Therapy was initiated when implanted tumors were visible by ultrasound (˜10 mm^3) and consisted of control (normal drinking water) or warfarin, administered in the drinking water at 0.5 mg/L (immunocompetent mice: Pan02 (n=4, control; 3, warfarin), KIC (n=10, control; 8, warfarin)) or 1 mg/L (Panc-1 (n=10, control; 8, warfarin), AsPC-1 (n=8, control; 6, warfarin), Capan-1 (n=10, control; 7, warfarin)) and continued for 2-4 weeks until control mice were moribund. Therapy in KIC mice was initiated at 3 weeks of age and continued for 4 weeks. (FIG. 23B) Metastases were determined grossly upon sacrifice and confirmed by histological evaluation of the liver. […] Incidence of metastasis is also indicated. […] Tumor volume determined by serial ultrasound. […] Therapy with mAb 10C9 (250 μg 2×/week) was initiated when tumors were established as above and persisted for 4 weeks. […] Error bars indicate s.e.m.
(§2) Animal studies. All animals were housed in a pathogen-free facility with 24-hour access to food and water. Experiments were approved by, and conducted in accordance with, an IACUC approved protocol at UT Southwestern. LSL-Kras^G12D; Cdkn2a^lox/lox; p48^Cre (KIC) mice were generated as previously described (Ostapoff et al., 2014). Four- to 6-week-old female NOD/SCID and C57/B16 mice were obtained from an on campus supplier. A total of 1×10^6 AsPc-1, Panc-1, Mia Paca2, Capan-1, C5LM2, Mia shLuc and Mia shAxl or 5×10^5 Pan02 cells, were injected orthotopically as described (Ostapoff et al., 2014). Mice with established tumors, as determined by sonography were randomized to receive normal drinking water or water containing 1 mg/L (˜3.0 μM) warfarin for experiments in immunocompromised mice and 0.5 mg/L (˜1.5 μM) in experiments in immunocompetent animals with or without gemcitabine 25 mg/kg twice weekly depending on experimental design.

[2] = test system: Capan-1 tumors; assay: as above; assay type: in vivo, mouse
Protocol: as §1, §2

[3] = test system: Panc-1 tumors; assay: as above; assay type: in vivo, mouse
Protocol: as §1
(§3) (FIG. 24A) HEK293 cells engineered to stably express recombinant Gas6 were grown in the presence of Vitamin K or Vitamin K+warfarin. Gas6 levels and γ-carboxylation were assayed by immunoblotting conditioned media. Conditioned media from untransfected HEK293 cells was used as a negative control. (FIG. 24B) Panc1 cells were grown overnight in media with 1% serum with no additions (NT), warfarin (2 μM) or BGB324 (2 μM). Lysates were probed for total Axl (tAxl) and phosphorylated Axl (pAxl). (FIG. 24C) Panc1 cells were grown in the presence of control media, Vitamin K, warfarin or warfarin+Vitamin K. The level of phosphorylated Axl (pAXL, red) was determined by immunofluorescence. (FIG. 24D) Panc1 cells were grown overnight in media with 1% serum with no additions (control), warfarin (1 μM), Gas6 (1.3 nM) or Gas6+warfarin. Lysates were probed for phosphorylated Akt (pAkt) and actin. (FIG. 24E) Lysates from Panc1 tumors harvested from mice treated with control or warfarin were probed for expression of tAxl, pAxl, actin, pAKT, tAKT, and cleaved Parp. (FIG. 24F) The effect of warfarin on cell migration was assessed by a ‘scratch’ assay. Monolayers of the indicted cells were wounded with a pipet tip. The cells were incubated in media containing 2% serum+/−warfarin (2 μM) or media containing 2% serum+Gas6 (1.3 nM)+/−warfarin.
FIGS. 26A-C. […] (FIG. 26A) the expression level of pAxl, Zeb1 and nuclear β-catenin in Panc1 cells in vitro was measured by immunofluorescence under normal culture conditions or after growth on collagen matrix and treatment with TGF-β (20 ng/ml) to induce epithelial to mesenchymal transition, with or without warfarin (2 μM). p-Axl was normalized to total Axl area. (FIG. 26B) Panc1 cells were treated with either SFM, recombinant Gas 6 (100 ng/ml) or Gas6 following pretreatment with 10C9 (mAb anti-Axl). Transition to a mesenchymal phenotype was characterized by changes in vimentin and nuclear Zeb1 expression determined by immunofluoresence. […] (FIG. 26C) Paraffin embedded sections of Panc-1 tumors were analyzed by immunofluorescence for markers of EMT.

[4] = test system: cell migration; assay: Scratch migration assay; assay type: cell-based; conditions: warfarin 2 μM, 16 hrs
Protocol: as §3

[5] = test system: orthotopic C5LM2 or Mia PaCa-2 tumors; assay: Gemcitabine combinations in mice bearing established orthotopic tumors; assay type: in vivo, mouse; conditions: combined with gemcitabine
Excerpt: as §2

[6] = tumor lysates, low dose warfarin
[7] = tumor sections, low dose warfarin

CC(=O)CC(c1ccccc1)c1c(O)c2ccccc2oc1=O (racemic) [Warfarin]
primary tumor growth [1]: little effect
response of tumors to warfarin ([2]; no detectable Axl expression): nonresponsive
primary tumor growth ([2]; warfarin 1 mg/L drinking water): little effect
intratumoral microvessel density ([3]; Endomucin, low dose warfarin): reduced
expression of vimentin and E-cadherin in tumors ([3]; immunofluorescence, low dose warfarin): reduced expression of vimentin and elevated the expression of E-cadherin
level of cleaved Parp [3, 6]: increased
level of pAxl and pAkt in tumors [3, 6]: substantially suppressed
cleaved caspase 3 and tumor necrosis [3, 7]: elevated
expression of phosphorylated histone H3 (proliferation) [3, 7]: decreased
primary tumor growth ([3]; warfarin 1 mg/L drinking water): little effect
basal and Gas6-induced cell migration (% wound closure) [4]: reduced
augmentation of gemcitabine reduction of primary tumor growth and metastatic control [5]: augmented gemcitabine reduction of primary tumor growth
